Results taken from article PMC10443802, “Targeting a xenobiotic transporter to ameliorate vincristine-induced sensory neuropathy” (JCI Insight, 2023).
Values joined by “and” are separate entries in the source; they are usually repeats but may differ in a detail not shown here. Equal values may be shown once.

Legend:
hOATP1B3 = target: T1, hOATP1B3 (Homo sapiens, UniProt Q9NPD5); assay: Inhibition of vincristine uptake in HEK293 cells overexpressing hOATP1B3; settings: inhibitor 15 min pre-treatment
T1 sequence (Q9NPD5 1-702): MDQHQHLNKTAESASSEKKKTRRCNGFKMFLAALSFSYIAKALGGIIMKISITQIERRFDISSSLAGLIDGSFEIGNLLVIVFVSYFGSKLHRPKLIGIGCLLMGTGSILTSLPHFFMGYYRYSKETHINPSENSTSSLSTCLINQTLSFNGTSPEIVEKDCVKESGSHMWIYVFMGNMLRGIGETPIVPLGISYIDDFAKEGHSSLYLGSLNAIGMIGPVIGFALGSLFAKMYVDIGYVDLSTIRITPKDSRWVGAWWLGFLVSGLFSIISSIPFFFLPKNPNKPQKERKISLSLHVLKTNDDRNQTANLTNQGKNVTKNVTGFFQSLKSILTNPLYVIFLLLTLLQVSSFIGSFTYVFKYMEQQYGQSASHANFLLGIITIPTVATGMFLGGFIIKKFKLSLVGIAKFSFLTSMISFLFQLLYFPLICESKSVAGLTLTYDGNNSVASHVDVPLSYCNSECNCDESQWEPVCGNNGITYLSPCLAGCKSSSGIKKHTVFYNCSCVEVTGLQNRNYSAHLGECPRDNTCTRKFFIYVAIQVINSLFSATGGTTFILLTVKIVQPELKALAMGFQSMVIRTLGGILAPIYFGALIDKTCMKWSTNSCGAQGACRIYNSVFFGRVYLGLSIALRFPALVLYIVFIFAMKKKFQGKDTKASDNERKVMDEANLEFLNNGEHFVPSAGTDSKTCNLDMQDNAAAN

P388D1 = settings: vincristine 1 μM, 30 min, nilotinib 10 μM
Description: (A) Gene expression of the OATP1B2 gene in L1210 and P388D1 murine leukemia cells
normalized to total protein levels. All data presented represent the mean (bars) ± SEM (error bars).

RS411 = assay: Cytotoxicity of vincristine with or without nilotinib, MTT assay, RS411; assay type: cell-based, human; settings: RS411 cells, vincristine alone, individual replicates
rOATP1A1 = rOATP1A1 (Rattus norvegicus, UniProt P46720); assay: Vincristine uptake screen, HeLa cells overexpressing rOATP1A1; assay type: in vitro ADME
Description: (§1) Relative uptake is expressed as percentage change compared with empty vector controls (n = 4–14 per group). […] Human OATP1B1 and OATP1B3 transporter–overexpressed cells were used as positive controls; empty vector controls were used as the negative control. […] Mechanical allodynia (C), thermal hyperalgesia (D), and sciatic nerve maximal action potential amplitudes (E) are expressed as percentage change relative to baseline values (n = 6–8 per group). Statistical analysis was performed using a 2-way ANOVA with Bonferroni’s post hoc test. **P < 0.01, ***P < 0.001, ****P < 0.0001, compared with baseline values. […] Data are shown as mean ± SEM. […]
(§2) transfected with transporters of interest, including hOAT1, hOAT3, hOAT4, hOATP1A2, hOATP3A1, hOATP4A1, hOATP5A1, hOATP1C1, hOATP1B1, hOATP1B3, hOATP2B1, hOCT1, hOCT2, hOCTN1, hOCTN2, hASBT, hNTCP, hNPT1, hMATE1, hOSTα/β, hPEPT1, hPEPT2, rOatp1a1, rOatp1a4, rOatp1a5, rOatp1b2, rNtcp, rAsbt, rOat1, and rOct1. Cells were transfected with expression plasmid or vector control lacking any insert using Lipofectin reagent (Invitrogen). […] The cellular radioactivity was quantified by liquid scintillation counting as described above. […]
(§3) Samples were analyzed using real-time quantitative PCR and Taqman Probes (Applied Biosystems). The relative gene expression was determined using the ΔΔCt method, and normalized to the mouse or human housekeeping gene, GAPDH. […]

hOATP1A2 = hOATP1A2 (Homo sapiens, UniProt P46721); assay: Vincristine uptake screen, HeLa cells overexpressing hOATP1A2; assay type: in vitro ADME
Description: as §1, §2, §3

MOLT4 = assay: Cytotoxicity of vincristine with or without nilotinib, MTT assay, MOLT4; assay type: cell-based, human; settings: vincristine alone, individual replicates

Sequence of hOATP1A2 (P46721 whole entry): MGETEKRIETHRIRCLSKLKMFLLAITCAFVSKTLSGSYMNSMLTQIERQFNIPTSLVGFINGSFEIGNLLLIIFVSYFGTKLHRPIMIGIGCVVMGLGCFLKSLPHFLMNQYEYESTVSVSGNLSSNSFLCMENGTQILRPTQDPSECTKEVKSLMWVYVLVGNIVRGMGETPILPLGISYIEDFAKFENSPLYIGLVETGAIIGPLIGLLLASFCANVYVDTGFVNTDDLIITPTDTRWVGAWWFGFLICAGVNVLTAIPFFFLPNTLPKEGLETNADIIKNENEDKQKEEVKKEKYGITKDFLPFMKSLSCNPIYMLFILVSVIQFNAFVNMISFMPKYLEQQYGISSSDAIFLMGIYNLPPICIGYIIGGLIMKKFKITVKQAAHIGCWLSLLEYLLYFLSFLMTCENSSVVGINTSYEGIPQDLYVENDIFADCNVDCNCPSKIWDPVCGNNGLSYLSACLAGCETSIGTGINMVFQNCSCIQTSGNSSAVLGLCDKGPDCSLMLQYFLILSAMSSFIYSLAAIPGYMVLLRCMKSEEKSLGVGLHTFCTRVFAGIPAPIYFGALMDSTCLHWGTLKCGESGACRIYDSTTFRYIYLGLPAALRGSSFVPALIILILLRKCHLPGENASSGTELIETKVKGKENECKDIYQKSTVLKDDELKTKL
Sequence of rOATP1A1 (P46720 whole entry): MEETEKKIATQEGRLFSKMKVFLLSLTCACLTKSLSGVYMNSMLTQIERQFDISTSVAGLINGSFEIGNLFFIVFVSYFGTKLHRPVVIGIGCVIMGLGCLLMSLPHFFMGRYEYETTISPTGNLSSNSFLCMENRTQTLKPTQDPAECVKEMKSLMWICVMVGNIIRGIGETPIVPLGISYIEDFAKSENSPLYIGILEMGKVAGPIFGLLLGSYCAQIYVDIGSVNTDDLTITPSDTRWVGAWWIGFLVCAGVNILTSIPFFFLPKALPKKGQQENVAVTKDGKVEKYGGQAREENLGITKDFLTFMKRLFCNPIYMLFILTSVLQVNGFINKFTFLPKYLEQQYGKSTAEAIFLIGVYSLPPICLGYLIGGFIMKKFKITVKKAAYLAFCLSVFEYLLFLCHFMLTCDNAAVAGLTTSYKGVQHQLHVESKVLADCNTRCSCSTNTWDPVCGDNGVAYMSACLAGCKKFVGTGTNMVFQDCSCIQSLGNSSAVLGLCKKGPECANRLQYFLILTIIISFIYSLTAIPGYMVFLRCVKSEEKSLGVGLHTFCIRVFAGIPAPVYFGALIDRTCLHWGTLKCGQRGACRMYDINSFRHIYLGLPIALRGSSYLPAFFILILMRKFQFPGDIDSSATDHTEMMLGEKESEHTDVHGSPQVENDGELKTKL

SMILES	Vincristine uptake (% of vehicle) (hOATP1B3)	Influence on uptake of vincristine (P388D1)	IC50 (RS411)	Vincristine uptake (% of vector control) (rOATP1A1)	Vincristine uptake (% of vector control) (hOATP1A2)	IC50 (MOLT4; Homo sapiens, MOLT-4, MOLT4 cells) [nM]	IC50 (MOLT4; MOLT4 cells)
Cc1cn(-c2cc(NC(=O)c3ccc(C)c(Nc4nccc(-c5cccnc5)n4)c3)cc(C(F)(F)F)c2)cn1 [Nilotinib, nilotinib]	56.9618 % of vehicle and 79.3107 % of vehicle and 46.7964 % of vehicle and 63.7354 % of vehicle and 65.1694 % of vehicle and 69.9849 % of vehicle	did not influence the uptake of vincristine	–	–	–	–	–
CC[C@]1(O)C[C@H]2CN(CCc3c([nH]c4ccccc34)[C@@](C(=O)OC)(c3cc4c(cc3OC)N(C=O)[C@H]3[C@@](O)(C(=O)OC)[C@H](OC(C)=O)[C@]5(CC)C=CCN6CC[C@]43[C@@H]65)C2)C1 [Vincristine, vincristine]	–	–	4.81 nM and 6.23 nM and 4 nM and 8.42 nM and 6.45 nM and 7.46 nM and 5.33 nM and 4.58 nM and 7.35 nM	102.00 % of vector control and 84.00 % of vector control and 73.00 % of vector control and 95.00 % of vector control and 74.00 % of vector control and 58.00 % of vector control and 71.00 % of vector control and 62.00 % of vector control	186.00 % of vector control and 176.00 % of vector control and 142.00 % of vector control and 167.00 % of vector control and 183.00 % of vector control and 171.00 % of vector control and 148.00 % of vector control and 164.00 % of vector control	6.88	6.2 nM and 9.07 nM and 9.04 nM and 7.56 nM and 10.2 nM and 7.73 nM and 7.86 nM and 6.95 nM
